Like-named read-outs stand apart in the source and are kept apart here.
Tests used:
Assay in all cases: microbe, parasite or virus in culture
Type in all cases: cell-based, HIV-1
[1] = tested on: NLRepRlucP373S recombinant wild type (WT) virus
In short: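 Multiple-cycle assay: luciferase-normalized NL4-3-derived NLRepRlucP373S (Renilla luciferase in place of nef) infects MT-2 cells, 10,000 cells/well, with 3-fold compound dilutions at 1% DMSO, 4-5 days, 37 °C. EC50 and EC90 fitted by median effect equation against Renilla luminescence, with residual signal under 3 μM NFV as background.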

gag V370A/ΔT371 virus = conditions: for EC50: Human immunodeficiency virus 1, MT2, read-out: V370A/ΔT371 EC50
In short: (§1)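 Virus yield quantified by Renilla luciferase after 4–5 day culture at 37°C of MT-2 cells (10,000/well) with 3-fold serially diluted compound at 1% final DMSO. Reporter viruses were NL4-3 P373S derivatives bearing Gag A364V or V370A/ΔT371, inputs matched on luciferase endpoint.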

[2] = tested on: A364V site directed mutant virus; conditions: for EC50: Human immunodeficiency virus 1, MT2, read-out: A364V EC50
In short: as §1

[3] = tested on: T332S/V362I/Pr R41G virus; conditions: for EC50: Human immunodeficiency virus 1, MT2, read-out: T332S/V362I/pr41G EC50
In short: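 Multiple-cycle susceptibility: MT-2 cells, 10,000 per well, exposed to 3-fold compound dilutions at 1% DMSO after infection with luciferase-normalized inoculum. Virus: NL4-3-derived Renilla reporter (Gag P373S) with Gag T332S/V362I and protease R41G. Readout Renilla luciferase after 4–5 days, 37 °C.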

[4] = Human immunodeficiency virus 1, MT2, read-out: WT EC50

For `C=C(C)[C@@H]1CC[C@]2(NCCC3(O)CCS(=O)(=O)CC3)CC[C@]3(C)[C@H](CC[C@@H]4[C@@]5(C)CC=C(C6=CCC(COc7ccccn7)(C(=O)O)CC6)C(C)(C)[C@@H]5CC[C@]43C)[C@@H]12` (stereo partly drawn) [Example 33, 4-((1R,3aS,5aR,5bR,7aR,11aS,11bR,13aR,13bR)-3a-((2-(4-hydroxy-1,1-dioxidotetrahydro-2H-thiopyran-4-yl)ethyl)amino)-5a,5b,8,8,11a-pentamethyl-1-(prop-1-en-2-yl)-2,3,3a,4,5,5a,5b,6,7,7a,8,11,11a,11b,12,13,13a,13b-octadecahydro-1H-cyclopenta[a]chrysen-9-yl)-1-((pyridin-2-yloxy)methyl)cyclohex-3-ene-1-carboxylic acid], which EC50 [1, 4] is on record?
The EC50 was 5 nM.

What about the EC50 (gag V370A/ΔT371 virus) of the same molecule?
The EC50 was < 50 nM.

And the EC50 [2]?
Its EC50 is 16 nM.

What about the EC50 [3] of the same molecule?
The EC50 was < 50 nM.

How did the EC50 [1, 4] turn out when `C=C(C)[C@@H]1CC[C@]2(NCCN3CCS(=O)(=O)CC3)CC[C@]3(C)[C@H](CC[C@@H]4[C@@]5(C)CC=C(C6=CCC(COc7ncccn7)(C(=O)O)CC6)C(C)(C)[C@@H]5CC[C@]43C)[C@@H]12` (stereo partly drawn) [Example 34] was run?
Its EC50 is 2 nM.

What about the EC50 (gag V370A/ΔT371 virus) of the same molecule?
Its EC50 is 13 nM.

And the EC50 [2]?
The EC50 was < 50 nM.

What about the EC50 [3] of the same molecule?
Its EC50 is 13 nM.

`C=C(C)[C@@H]1CC[C@]2(NCCN3CCS(=O)(=O)CC3)CC[C@]3(C)[C@H](CC[C@@H]4[C@@]5(C)CC=C(C6=CCC(COc7nccc8ccc(OC)cc78)(C(=O)O)CC6)C(C)(C)[C@@H]5CC[C@]43C)[C@@H]12` (stereo partly drawn) [Example 35, 4-((1R,3aS,5aR,5bR,7aR,11aS,11bR,13aR,13bR)-3a-((2-(1,1-dioxidothiomorpholino)ethyl)amino)-5a,5b,8,8,11a-pentamethyl-1-(prop-1-en-2-yl)-2,3,3a,4,5,5a,5b,6,7,7a,8,11,11a,11 b,12,13,13a,13b-octadecahydro-1H-cyclopenta[a]chrysen-9-yl)-1-(((7-methoxyisoquinolin-1-yl)oxy)methyl)cyclohex-3-ene-1-carboxylic acid] was tested. Which EC50 [1, 4] did it give?
Its EC50 is 7 nM.

What about the EC50 (gag V370A/ΔT371 virus) of the same molecule?
Its EC50 is > 50 nM.

What about the EC50 [2] of the same molecule?
The EC50 was 24 nM.

And the EC50 [3]?
The EC50 was > 50 nM.

`C=C(C)[C@@H]1CC[C@]2(NCCN3CCS(=O)(=O)CC3)CC[C@]3(C)[C@H](CC[C@@H]4[C@@]5(C)CC=C(C6=CCC(COc7ncccc7C#N)(C(=O)O)CC6)C(C)(C)[C@@H]5CC[C@]43C)[C@@H]12` (stereo partly drawn) [Example 36, 1-(((3-cyanopyridin-2-yl)oxy)methyl)-4-((1R,3aS,5aR,5bR,7aR,11aS,11bR,13aR,13bR)-3a-((2-(1,1-dioxidothiomorpholino)ethyl)amino)-5a,5b,8,8,11a-pentamethyl-1-(prop-1-en-2-yl)-2,3,3a,4,5,5a,5b,6,7,7a,8,11,11a,11b,12,13,13a,13b-octadecahydro-1H-cyclopenta[a]chrysen-9-yl)cyclohex-3-ene-1-carboxylic acid] was tested. Which EC50 [1, 4] did it give?
Its EC50 is 3 nM.

And the EC50 (gag V370A/ΔT371 virus)?
The EC50 was 11 nM.

What about the EC50 [2] of the same molecule?
Its EC50 is 5 nM.

And the EC50 [3]?
The EC50 was 11 nM.

How did the EC50 [1, 4] turn out when `C=C(C)[C@@H]1CC[C@]2(NCCN3CCS(=O)(=O)CC3)CC[C@]3(C)[C@H](CC[C@@H]4[C@@]5(C)CC=C(C6=CCC(COc7cc(C#N)ccn7)(C(=O)O)CC6)C(C)(C)[C@@H]5CC[C@]43C)[C@@H]12` (stereo partly drawn) [Example 37, 1-(((4-cyanopyridin-2-yl)oxy)methyl)-4-((1R,3aS,5aR,5bR,7aR,11aS,11bR,13aR,13bR)-3a-((2-(1,1-dioxidothiomorpholino)ethyl)amino)-5a,5b,8,8,11a-pentamethyl-1-(prop-1-en-2-yl)-2,3,3a,4,5,5a,5b,6,7,7a,8,11,11a,11b,12,13,13a,13b-octadecahydro-1H-cyclopenta[a]chrysen-9-yl)cyclohex-3-ene-1-carboxylic acid] was run?
Its EC50 is < 50 nM.

And the EC50 (gag V370A/ΔT371 virus)?
The EC50 was > 50 nM.

And the EC50 [2]?
The EC50 was > 50 nM.

What about the EC50 [3] of the same molecule?
The EC50 was > 50 nM.

`C=C(C)[C@@H]1CC[C@]2(NCCN3CCS(=O)(=O)CC3)CC[C@]3(C)[C@H](CC[C@@H]4[C@@]5(C)CC=C(C6=CCC(COc7ccc(C#N)cn7)(C(=O)O)CC6)C(C)(C)[C@@H]5CC[C@]43C)[C@@H]12` (stereo partly drawn) [Example 38, 1-(((5-cyanopyridin-2-yl)oxy)methyl)-4-((1R,3aS,5aR,5bR,7aR,11aS,11bR,13aR,13bR)-3a-((2-(1,1-dioxidothiomorpholino)ethyl)amino)-5a,5b,8,8,11a-pentamethyl-1-(prop-1-en-2-yl)-2,3,3a,4,5,5a,5b,6,7,7a,8,11,11a,11b,12,13,13a,13b-octadecahydro-1H-cyclopenta[a]chrysen-9-yl)cyclohex-3-ene-1-carboxylic acid] was tested. Which EC50 [1, 4] did it give?
The EC50 was 2 nM.

And the EC50 (gag V370A/ΔT371 virus)?
Its EC50 is 232 nM.

What about the EC50 [2] of the same molecule?
The EC50 was 29 nM.

And the EC50 [3]?
The EC50 was 232 nM.

Which results are given for `C=C(C)[C@@H]1CC[C@]2(NCCN3CCS(=O)(=O)CC3)CC[C@]3(C)[C@H](CC[C@@H]4[C@@]5(C)CC=C(C6=CCC(COc7cccc(C#N)n7)(C(=O)O)CC6)C(C)(C)[C@@H]5CC[C@]43C)[C@@H]12` (stereo partly drawn) [Example 39, 1-(((6-cyanopyridin-2-yl)oxy)methyl)-4-((1R,3aS,5aR,5bR,7aR,11aS,11bR,13aR,13bR)-3a-((2-(1,1-dioxidothiomorpholino)ethyl)amino)-5a,5b,8,8,11a-pentamethyl-1-(prop-1-en-2-yl)-2,3,3a,4,5,5a,5b,6,7,7a,8,11,11a,11b,12,13,13a,13b-octadecahydro-1H-cyclopenta[a]chrysen-9-yl)cyclohex-3-ene-1-carboxylic acid]?
EC50 [1, 4]: 14 nM; EC50 (gag V370A/ΔT371 virus): > 50 nM; EC50 [2]: < 50 nM; EC50 [3]: > 50 nM

For `C=C(C)[C@@H]1CC[C@]2(NCCN3CCS(=O)(=O)CC3)CC[C@]3(C)[C@H](CC[C@@H]4[C@@]5(C)CC=C(C6=CCC(COc7cccc(C(N)=O)n7)(C(=O)O)CC6)C(C)(C)[C@@H]5CC[C@]43C)[C@@H]12` (stereo partly drawn) [Example 40, 1-(((6-carbamoylpyridin-2-yl)oxy)methyl)-4-((1R,3aS,5aR,5bR,7aR,11aS,11bR,13aR,13bR)-3a-((2-(1,1-dioxidothiomorpholino)ethyl)amino)-5a,5b,8,8,11a-pentamethyl-1-(prop-1-en-2-yl)-2,3,3a,4,5,5a,5b,6,7,7a,8,11,11a,11b,12,13,13a,13b-octadecahydro-1H-cyclopenta[a]chrysen-9-yl)cyclohex-3-ene-1-carboxylic acid], which EC50 [1, 4] is on record?
The EC50 was 4 nM.

What about the EC50 (gag V370A/ΔT371 virus) of the same molecule?
The EC50 was 233 nM.

What about the EC50 [2] of the same molecule?
Its EC50 is 271 nM.

And the EC50 [3]?
The EC50 was 233 nM.

What does the source list for `C=C(C)[C@@H]1CC[C@]2(NCC[C@]3(O)CC[C@@H](S(C)(=O)=O)CC3)CC[C@]3(C)[C@H](CC[C@@H]4[C@@]5(C)CC=C(C6=CCC(COc7ccccn7)(C(=O)O)CC6)C(C)(C)[C@@H]5CC[C@]43C)[C@@H]12` (stereo partly drawn) [Example A1, 4-((1R,3aS,5aR,5bR,7aR,11aS,11bR,13aR,13bR)-3a-((2-((1s,4R)-1-hydroxy-4-(methylsulfonyl)cyclohexyl)ethyl)amino)-5a,5b,8,8,11a-pentamethyl-1-(prop-1-en-2-yl)-2,3,3a,4,5,5a,5b,6,7,7a,8,11,11a,11 b,12,13,13a,13b-octadecahydro-1H-cyclopenta[a]chrysen-9-yl)-1-((pyridin-2-yloxy)methyl)cyclohex-3-enecarboxylic acid]?
EC50 [1, 4]: 5 nM; EC50 (gag V370A/ΔT371 virus): 26 nM; EC50 [2]: 9 nM; EC50 [3]: 26 nM

Which results are given for `C=C(C)[C@@H]1CC[C@]2(NCC[C@]3(O)CC[C@H](S(C)(=O)=O)CC3)CC[C@]3(C)[C@H](CC[C@@H]4[C@@]5(C)CC=C(C6=CCC(COc7ccccn7)(C(=O)O)CC6)C(C)(C)[C@@H]5CC[C@]43C)[C@@H]12` (stereo partly drawn) [Example A2, 4-((1R,3aS,5aR,5bR,7aR,11aS,11bR,13aR,13bR)-3a-((2-((1r,4S)-1-hydroxy-4-(methylsulfonyl)cyclohexyl)ethyl)amino)-5a,5b,8,8,11a-pentamethyl-1-(prop-1-en-2-yl)-2,3,3a,4,5,5a,5b,6,7,7a,8,11,11a,11 b,12,13,13a,13b-octadecahydro-1H-cyclopenta[a]chrysen-9-yl)-1-((pyridin-2-yloxy)methyl)cyclohex-3-enecarboxylic acid]?
EC50 [1, 4]: 1 nM; EC50 (gag V370A/ΔT371 virus): 8 nM; EC50 [2]: 14 nM; EC50 [3]: 8 nM

`C=C(C)[C@@H]1CC[C@]2(NCC[C@]3(O)CC[C@@H](S(C)(=O)=O)CC3)CC[C@]3(C)[C@H](CC[C@@H]4[C@@]5(C)CC=C(C6=CC[C@@](COc7ncccc7C#N)(C(=O)O)CC6)C(C)(C)[C@@H]5CC[C@]43C)[C@@H]12` [Example A3, (S)-1-(((3-cyanopyridin-2-yl)oxy)methyl)-4-((1R,3aS,5aR,5bR,7aR,11aS,11bR,13aR,13bR)-3a-((2-((1s,4R)-1-hydroxy-4-(methylsulfonyl)cyclohexyl)ethyl)amino)-5a,5b,8,8,11a-pentamethyl-1-(prop-1-en-2-yl)-2,3,3a,4,5,5a,5b,6,7,7a,8,11,11a,11b,12,13,13a,13b-octadecahydro-1H-cyclopenta[a]chrysen-9-yl)cyclohex-3-enecarboxylic acid] was tested. Which EC50 [1, 4] did it give?
Its EC50 is 4 nM.

What about the EC50 ([1]; Human immunodeficiency virus 1, read-out: WT EC50) of the same molecule?
Its EC50 is 4 nM.

What about the EC50 (gag V370A/ΔT371 virus) of the same molecule?
The EC50 was 5 nM.

What about the EC90 (gag V370A/ΔT371 virus; Human immunodeficiency virus 1, read-out: V370A/ΔT371 EC90) of the same molecule?
Its EC90 is 15 nM.

And the EC50 [2]?
The EC50 was 11 nM.

What about the EC90 ([2]; Human immunodeficiency virus 1, read-out: A364V EC90) of the same molecule?
Its EC90 is 166 nM.

And the EC50 [3]?
The EC50 was 5 nM.

And the EC90 ([3]; Human immunodeficiency virus 1, read-out: T332S/V362I/prR41G EC90)?
The EC90 was 17 nM.

— patent publication US10421774B2 (priority 2016, dated 2019)
